Key:
single deposited B-cells = experiment: co-cultivation of single deposited B-cells with EL-4 B5 feeder cells; IgG in supernatant by ELISA; format: cell-based, rabbit; settings: for frequency per plate of rbIgG-positive wells: PMA 0.73 ng/ml; for average productivity/plate, IgG+ wells / frequency/plate rbIgG+: non-immunized animal
Protocol: Single cell sorted B-cells were cultured in 96-well plates with 200 μl/well EL-4 B5 medium with Pansorbin Cells (SAC) (Calbiochem (Merck), Darmstadt, Deutschland), EL-4 B5 cells (0-5×10^4/well) and rabbit thymocyte supernatant or cytokine mix, respectively, for 7 days at 37° C. in an atmosphere of 5% CO2 in the incubator. B-cell culture supernatants were removed for screening and the cells harvested immediately for variable region gene cloning or frozen at −80° C. in 100 μl RLT buffer (Qiagen, Hilden, Germany).
A mixture of 0.5 μg/ml of biotinylated mouse anti-rabbit IgG antibody (Sigma-Aldrich) and 0.35 μg/ml anti-rabbit IgG HRP conjugate (Sigma-Aldrich) was transferred to 384 well streptavidin coated microtiter plates (MicroCoat Biotechnologie GmbH). Dilutions of B-cell supernatants in PBS supplemented with 0.5% BSA and 0.05% Tween®-20 were added and incubated for 90 min at RT. After repeated washing (6×) with PBST (phosphate buffered saline with 0.2% Tween buffer the plates were developed with BM Blue® HRP substrate solution and color formation was measured by absorbance at 370 nm. A commercial rabbit IgG (Sigma-Aldrich) was used as a calibration standard.

EL-4 B5 cells = experiment: vitality of irradiated EL-4 B5 cells in presence of PMA; format: cell-based, murine
Source text: Different PMA concentrations in combination with single deposited cells of a non-immunized animal have been tested.

[1] = PMA 0.57 ng/ml, 50 Gy, 50k/Well
[2] = PMA 1.3 ng/ml, 3 Gy, 15k/Well, HSA immunized rabbit
[3] = c(PMA) 0.015 ng/ml, 4 Gy EL-4 B5
[4] = c(PMA) 0.03 ng/ml, 4 Gy EL-4 B5
[5] = c(PMA) 0.03 ng/ml, 50 Gy EL-4 B5
[6] = c(PMA) 0.06 ng/ml, 4 Gy EL-4 B5
[7] = c(PMA) 0.125 ng/ml, 4 Gy EL-4 B5
[8] = c(PMA) 0.25 ng/ml, 4 Gy EL-4 B5
[9] = c(PMA) 0.25 ng/ml, 50 Gy EL-4 B5
[10] = c(PMA) 1.3 ng/ml, 50 Gy EL-4 B5

## CCCCCCCCCCCCCC(=O)O[C@@H]1[C@@H](C)[C@@]2(O)[C@@H](C=C(CO)C[C@]3(O)C(=O)C(C)=C[C@@H]23)[C@@H]2C(C)(C)[C@]12OC(C)=O [PMA, phorbol-12-myristate-13-acetate]
Single deposited B-cells; PMA 0.57 ng/ml, 3 Gy, 15k/Well
  IgG+ Frequency: 32.1 % total wells
Single deposited B-cells; PMA 0.57 ng/ml, 4 Gy, 20k/Well
  Average IgG Productivity of all IgG+ wells: 5.834 µg/mL
  IgG+ Frequency: 72.6 % total wells
Single deposited B-cells; PMA 0.57 ng/ml, 5 Gy, 20k/Well
  Average IgG Productivity of all IgG+ wells: 5.269 µg/mL
  IgG+ Frequency: 86.9 % total wells
Single deposited B-cells; PMA 0.57 ng/ml, 8 Gy, 20k/Well
  Average IgG Productivity of all IgG+ wells: 5.72 µg/mL
  IgG+ Frequency: 81 % total wells
Single deposited B-cells; [1]
  Average IgG Productivity of all IgG+ wells: 4.876 µg/mL
  IgG+ Frequency: 84.5 % total wells
Single deposited B-cells; 0.031x CM, 5,000 non-irradiated EL-4 B5 cells per well
  frequency per plate of rbIgG-positive wells: 76.2 % total
Single deposited B-cells; 0.1x CM, 5,000 non-irradiated EL-4 B5 cells per well
  frequency per plate of rbIgG-positive wells: 75.0 % total
Single deposited B-cells; 0.31x CM, 5,000 non-irradiated EL-4 B5 cells per well
  frequency per plate of rbIgG-positive wells: 67.9 % total
Single deposited B-cells; 1x CM, 5,000 non-irradiated EL-4 B5 cells per well
  frequency per plate of rbIgG-positive wells: 36.9 % total
Single deposited B-cells; 2x CM, 5,000 non-irradiated (0 Gy) EL-4 B5 cells per well
  frequency per plate of rbIgG-positive wells: 48.8 % total
Single deposited B-cells; [2]
  Average IgG Productivity of all IgG+ wells: 4.937 µg/mL
  IgG+ Frequency: 8.3 % total wells
Single deposited B-cells; PMA 1.3 ng/ml, 4 Gy, 20k/Well
  Average IgG Productivity of all IgG+ wells: 5.011 µg/mL
  IgG+ Frequency: 72.6 % total wells
Single deposited B-cells; PMA 1.3 ng/ml, 5 Gy, 20k/Well
  Average IgG Productivity of all IgG+ wells: 4.8 µg/mL
  IgG+ Frequency: 84.5 % total wells
Single deposited B-cells; PMA 1.3 ng/ml, 8 Gy, 20k/Well
  Average IgG Productivity of all IgG+ wells: 5.198 µg/mL
  IgG+ Frequency: 88.1 % total wells
Single deposited B-cells; PMA 1.3 ng/ml, 50 Gy, 50k/Well
  Average IgG Productivity of all IgG+ wells: 5.427 µg/mL
  IgG+ Frequency: 83.3 % total wells
Single deposited B-cells; [3]
  average productivity/plate, IgG+ wells: 3.90 µg/mL
  frequency/plate rbIgG+: 54.0 % total
Single deposited B-cells; [4]
  average productivity/plate, IgG+ wells: 3.90 µg/mL
  frequency/plate rbIgG+: 55.6 % total
Single deposited B-cells; [5]
  average productivity/plate, IgG+ wells: 1.36 µg/mL
  frequency/plate rbIgG+: 52.4 % total
Single deposited B-cells; [6]
  average productivity/plate, IgG+ wells: 3.72 µg/mL
  frequency/plate rbIgG+: 57.5 % total
Single deposited B-cells; [7]
  average productivity/plate, IgG+ wells: 3.78 µg/mL
  frequency/plate rbIgG+: 56.0 % total
Single deposited B-cells; [8]
  average productivity/plate, IgG+ wells: 3.83 µg/mL
  frequency/plate rbIgG+: 64.3 % total
Single deposited B-cells; [9]
  average productivity/plate, IgG+ wells: 2.48 µg/mL
  frequency/plate rbIgG+: 54.4 % total
Single deposited B-cells; c(PMA) 0.5 ng/ml, 4 Gy EL-4 B5
  average productivity/plate, IgG+ wells: 4.06 µg/mL
  frequency/plate rbIgG+: 57.5 % total
Single deposited B-cells; c(PMA) 1.3 ng/ml, 4 Gy EL-4 B5
  average productivity/plate, IgG+ wells: 3.57 µg/mL
  frequency/plate rbIgG+: 56.0 % total
Single deposited B-cells; [10]
  average productivity/plate, IgG+ wells: 3.51 µg/mL
  frequency/plate rbIgG+: 58.7 % total
EL-4 B5 cells; c(PMA) 0.03 ng/ml, 4 Gy
  Vitality: 54.8%
EL-4 B5 cells; c(PMA) 0.03 ng/ml, 50 Gy
  Vitality: 3.9%
EL-4 B5 cells; c(PMA) 0.06 ng/ml, 4 Gy
  Vitality: 45.4%
EL-4 B5 cells; c(PMA) 0.125 ng/ml, 4 Gy
  Vitality: 39.8%
EL-4 B5 cells; c(PMA) 0.25 ng/ml, 4 Gy
  Vitality: 34%
EL-4 B5 cells; c(PMA) 0.25 ng/ml, 50 Gy
  Vitality: 9.5%
EL-4 B5 cells; c(PMA) 0.5 ng/ml, 4 Gy
  Vitality: 32.2%
EL-4 B5 cells; c(PMA) 1.3 ng/ml, 4 Gy
  Vitality: 19.2%
EL-4 B5 cells; c(PMA) 1.3 ng/ml, 50 Gy
  Vitality: 17.4%
